In patent publication US12528815B2, “5-amino-8-(4-pyridyl)-[1,2,4]triazolo[4,3-c]pyrimidin-3-one compounds for use against cancer” (Nxera Pharma UK Limited, priority 2020, dated 2026):

Columns and labels:
[1] = biological target: T1, human adenosine A1 receptor (Homo sapiens, UniProt P30542); assay: Inhibition binding assay, human adenosine A1 receptor membranes, [3H]DPCPX; conditions: 1 nM [3H]DPCPX, 25° C., 1 h; IC50 converted to Ki with Cheng-Prusoff; read-out: A1 pKi (converted)
T1 construct: expressed in transfected cells; host or cells: HEK293 cells infected with BacMam (the same paragraph also labels the preparation CHO-hA1)
T1 sequence (P30542 1-326): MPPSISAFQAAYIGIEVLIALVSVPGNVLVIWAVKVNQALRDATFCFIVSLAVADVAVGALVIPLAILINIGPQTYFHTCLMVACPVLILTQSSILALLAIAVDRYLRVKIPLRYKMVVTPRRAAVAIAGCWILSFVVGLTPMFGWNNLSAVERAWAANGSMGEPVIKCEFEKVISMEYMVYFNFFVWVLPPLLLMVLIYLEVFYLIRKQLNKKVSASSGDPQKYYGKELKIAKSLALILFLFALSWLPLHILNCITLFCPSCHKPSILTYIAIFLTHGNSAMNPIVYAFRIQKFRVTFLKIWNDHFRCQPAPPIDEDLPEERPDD
Summary of the method: (§1)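 Membranes from BacMam-infected HEK293 cells (0.2 μg A2A, 1.4 μg A1) incubated 1 h at 25° C with test compound and 1 nM [3H]ZM241385 (A2A; 50 mM Tris-HCl pH 7.4) or [3H]DPCPX (A1; plus 100 mM NaCl, 10 mM MgCl2). Nonspecific: 1 μM CGS15943 or DPCPX. Filtration, scintillation; IC50 converted to Ki via Cheng-Prusoff.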

[2] = biological target: T2, human adenosine A2A receptor (Homo sapiens, UniProt P29274); assay: Inhibition binding assay, human adenosine A2A receptor membranes, [3H]ZM241385; conditions: 1 nM [3H]ZM241385, HEK293-hA2A membranes, 25° C., 1 h; IC50 converted to Ki with Cheng-Prusoff; read-out: A2A pKi (converted)
T2 construct: expressed in transfected cells; host or cells: HEK293 cells infected with BacMam
Summary of the method: as §1

T2 sequence (P29274 whole entry): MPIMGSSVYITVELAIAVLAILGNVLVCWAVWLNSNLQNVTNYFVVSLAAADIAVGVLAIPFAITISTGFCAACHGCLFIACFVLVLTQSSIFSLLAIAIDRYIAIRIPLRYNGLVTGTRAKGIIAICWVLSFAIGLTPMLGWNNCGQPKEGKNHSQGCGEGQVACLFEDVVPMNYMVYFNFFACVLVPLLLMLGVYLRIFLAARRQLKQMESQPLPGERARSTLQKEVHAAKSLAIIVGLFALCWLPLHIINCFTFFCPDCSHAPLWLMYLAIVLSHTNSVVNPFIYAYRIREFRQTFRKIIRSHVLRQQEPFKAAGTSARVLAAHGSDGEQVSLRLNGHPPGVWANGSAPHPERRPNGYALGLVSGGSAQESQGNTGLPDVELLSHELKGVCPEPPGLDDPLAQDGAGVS

Cc1cc(-c2c(-c3ccccc3)nc(N)n3c(=O)n(CCN(C)C4CC4)nc23)cc(C)n1 [Example 2-19, 5-amino-2-[2-[cyclopropyl(methyl)amino]ethyl]-8-(2,6-dimethyl-4-pyridyl)-7-phenyl-[1,2,4]triazolo[4,3-c]pyrimidin-3-one]
Ki [1]: 398 nM
Ki [2]: 3.98 nM

Cc1cc(-c2c(-c3ccccc3)nc(N)n3c(=O)n(CCN4CCN(C)CC4)nc23)cc(C)n1 [Example 2-102, 5-amino-8-(2,6-dimethyl-4-pyridyl)-2-[2-(4-methylpiperazin-1-yl)ethyl]-7-phenyl-[1,2,4]triazolo[4,3-c]pyrimidin-3-one]
Ki [1]: > 3160 nM
Ki [2]: 126 nM

COC(=O)c1ccc(CCn2nc3c(-c4cc(C)nc(C)c4)c(-c4ccccc4)nc(N)n3c2=O)cc1 [Example 1-84, methyl 4-[2-[5-amino-8-(2,6-dimethyl-4-pyridyl)-3-oxo-7-phenyl-[1,2,4]triazolo[4,3-c]pyrimidin-2-yl]ethyl]benzoate]
Ki [1]: 794 nM
Ki [2]: 31.6 nM

COc1nc(N)n2c(=O)n(CCC(F)(F)F)nc2c1-c1cc(C)nc(C)c1 [Example 3-8, 5-amino-8-(2,6-dimethyl-4-pyridyl)-7-methoxy-2-(3,3,3-trifluoropropyl)-[1,2,4]triazolo[4,3-c]pyrimidin-3-one]
Ki [1]: > 3160 nM
Ki [2]: 1260 nM

COC(=O)C1(Cn2nc3c(-c4cc(C)nc(C)c4)c(-c4ccccc4)nc(N)n3c2=O)CCCC1 [Example 2-29, methyll-[[5-amino-8-(2,6-dimethyl-4-pyridyl)-3-oxo-7-phenyl-[1,2,4]triazolo[4,3-c]pyrimidin-2-yl]methyl]cyclopentanecarboxylate]
Ki [1]: 126 nM
Ki [2]: 0.501 nM

[2H]c1c([2H])c([2H])c(-c2nc(N)n3c(=O)n(Cc4ccc(F)cn4)nc3c2-c2cc(C)nc(CO)c2)c([2H])c1[2H] [Example 1-49, 5-amino-2-[(5-fluoro-2-pyridyl)methyl]-8-[2-(hydroxymethyl)-6-methyl-4-pyridyl]-7-(2,3,4,5,6-pentadeuteriophenyl)-[1,2,4]triazolo[4,3-c]pyrimidin-3-one]
Ki [1]: 398 nM
Ki [2]: 1.58 nM

Cc1cc(-c2c(-c3ccccc3)nc(N)n3c(=O)n(Cc4ccc(F)cn4)nc23)cc(O)n1 [Example 1-74, 5-amino-2-[(5-fluoro-2-pyridyl)methyl]-8-(2-hydroxy-6-methyl-4-pyridyl)-7-phenyl-[1,2,4]triazolo[4,3-c]pyrimidin-3-one]
Ki [1]: > 3160 nM
Ki [2]: 316 nM

Cc1cc(-c2c(-c3ccccc3)nc(N)n3c(=O)n(CC4CCCOC4)nc23)cc(CO)n1 (single isomer, unassigned) [Example 2-92-iso-2, 5-amino-8-[2-(hydroxymethyl)-6-methyl-4-pyridyl]-7-phenyl-2-(tetrahydropyran-3-ylmethyl)-[1,2,4]triazolo[4,3-c]pyrimidin-3-one]
Ki [1]: 316 nM
Ki [2]: 1.26 nM

Cc1cc(-c2c(-c3ccccc3)nc(N)n3c(=O)n(CC4CCCCO4)nc23)cc(C)n1 (single isomer, unassigned) [Example 2-82-iso-1, 5-amino-8-(2,6-dimethyl-4-pyridyl)-7-phenyl-2-(tetrahydropyran-2-ylmethyl)-[1,2,4]triazolo[4,3-c]pyrimidin-3-one]
Ki [1]: 126 nM
Ki [2]: 1.58 nM

Cc1cc(-c2c(Cl)nc(N)n3c(=O)n(CCC(F)(F)F)nc23)cc(C)n1 [Example 3-5, 5-amino-7-chloro-8-(2,6-dimethyl-4-pyridyl)-2-(3,3,3-trifluoropropyl)-[1,2,4]triazolo[4,3-c]pyrimidin-3-one]
Ki [1]: > 3160 nM
Ki [2]: 631 nM

Cc1cc(-c2c(-c3ccccc3)nc(N)n3c(=O)n(CCNC(C)c4nnc5ncccn45)nc23)cc(C)n1 (centres unmarked) [Example 1-92, 5-amino-8-(2,6-dimethyl-4-pyridyl)-7-phenyl-2-[2-[1-([1,2,4]triazolo[4,3-a]pyrimidin-3-yl)ethylamino]ethyl]-[1,2,4]triazolo[4,3-c]pyrimidin-3-one]
Ki [1]: > 3980 nM
Ki [2]: 126 nM

Cc1cc(-c2c(-c3ccccc3)nc(N)n3c(=O)n(CCc4ccccc4)nc23)cc(Cl)n1 [Example 1-89, 5-amino-8-(2-chloro-6-methyl-4-pyridyl)-7-phenyl-2-(2-phenylethyl)-[1,2,4]triazolo[4,3-c]pyrimidin-3-one]
Ki [1]: 126 nM
Ki [2]: 5.01 nM

CCC(c1ccc(F)cn1)n1nc2c(-c3cc(C)nc(C)c3)c(-c3ccccc3)nc(N)n2c1=O (single isomer, unassigned) [1-38 iso-1, 5-amino-8-(2,6-dimethyl-4-pyridyl)-2-[1-(5-fluoro-2-pyridyl)propyl]-7-phenyl-[1,2,4]triazolo[4,3-c]pyrimidin-3-one]
Ki [1]: 501 nM
Ki [2]: 63.1 nM

Cc1cc(-c2c(-c3ccccc3)nc(N)n3c(=O)n(C(C)Cc4ccccc4)nc23)cc(C)n1 (centres unmarked) [Example 1-81, 5-amino-8-(2,6-dimethyl-4-pyridyl)-2-(1-methyl-2-phenyl-ethyl)-7-phenyl-[1,2,4]triazolo[4,3-c]pyrimidin-3-one]
Ki [1]: 631 nM
Ki [2]: 25.1 nM

CCOC(=O)NCCn1nc2c(-c3cc(C)nc(C)c3)c(-c3ccccc3)nc(N)n2c1=O [Example 2-12, ethyl N-[2-[5-amino-8-(2,6-dimethyl-4-pyridyl)-3-oxo-7-phenyl-[1,2,4]triazolo[4,3-c]pyrimidin-2-yl]ethyl]carbamate]
Ki [1]: 501 nM
Ki [2]: 10 nM

Cc1cc(-c2c(-c3ccccc3)nc(N)n3c(=O)n(C)nc23)cc(C)n1 [Example 2-2, 5-amino-8-(2,6-dimethyl-4-pyridyl)-2-methyl-7-phenyl-[1,2,4]triazolo[4,3-c]pyrimidin-3-one]
Ki [1]: 200 nM
Ki [2]: 5.01 nM

Nc1nc(-c2ccccc2)c(-c2cc(Cl)nc(C(F)(F)F)c2)c2nn(Cc3ccc(F)cn3)c(=O)n12 [Example 1-79, 5-amino-8-[2-chloro-6-(trifluoromethyl)-4-pyridyl]-2-[(5-fluoro-2-pyridyl)methyl]-7-phenyl-[1,2,4]triazolo[4,3-c]pyrimidin-3-one]
Ki [1]: 251 nM
Ki [2]: 2.51 nM

Cc1cc(-c2c(-c3ccccc3)nc(N)n3c(=O)n(Cc4cccnn4)nc23)cc(C)[n+]1[O-] [Example 1-43, 5-amino-8-(2,6-dimethyl-1-oxido-pyridin-1-ium-4-yl)-7-phenyl-2-(pyridazin-3-ylmethyl)-[1,2,4]triazolo[4,3-c]pyrimidin-3-one]
Ki [1]: 316 nM
Ki [2]: 31.6 nM

Cc1cc(-c2c(-c3ccccc3)nc(N)n3c(=O)n(Cc4ncc(F)cn4)nc23)cc(C)n1 [Example 1-35, 5-amino-8-(2,6-dimethyl-4-pyridyl)-2-[(5-fluoropyrimidin-2-yl)methyl]-7-phenyl-[1,2,4]triazolo[4,3-c]pyrimidin-3-one]
Ki [1]: 1000 nM
Ki [2]: 15.8 nM

Cc1cc(-c2c(-c3ccccc3)nc(N)n3c(=O)n(Cc4ccc(F)cn4)nc23)cc(N(C)C)n1 [Example 1-71, 5-amino-8-[2-(dimethylamino)-6-methyl-4-pyridyl]-2-[(5-fluoro-2-pyridyl)methyl]-7-phenyl-[1,2,4]triazolo[4,3-c]pyrimidin-3-one]
Ki [1]: 631 nM
Ki [2]: 20 nM

Cc1cc(-c2c(-c3ccccc3)nc(N)n3c(=O)n(CC4CCCOC4)nc23)cc(C)n1 (centres unmarked) [Example 2-81, 5-amino-8-(2,6-dimethyl-4-pyridyl)-7-phenyl-2-(tetrahydropyran-3-ylmethyl)-[1,2,4]triazolo[4,3-c]pyrimidin-3-one]
Ki [1]: 316 nM
Ki [2]: 0.501 nM

Cc1cc(-c2c(-c3ccccc3)nc(N)n3c(=O)n(CC4CCCOC4)nc23)cc(CO)n1 (single isomer, unassigned) [Example 2-92-iso-1, 5-amino-8-[2-(hydroxymethyl)-6-methyl-4-pyridyl]-7-phenyl-2-(tetrahydropyran-3-ylmethyl)-[1,2,4]triazolo[4,3-c]pyrimidin-3-one]
Ki [1]: 251 nM
Ki [2]: 2.51 nM

[2H]c1c([2H])c([2H])c(-c2nc(N)n3c(=O)n(Cc4ccc(F)c(N)n4)nc3c2-c2cc(C)nc(CO)c2)c([2H])c1[2H] [Example 1-51, 5-amino-2-[(6-amino-5-fluoro-2-pyridyl)methyl]-8-[2-(hydroxymethyl)-6-methyl-4-pyridyl]-7-(2,3,4,5,6-pentadeuteriophenyl)-[1,2,4]triazolo[4,3-c]pyrimidin-3-one]
Ki [1]: 251 nM
Ki [2]: 2 nM

Cc1cc(-c2c(-c3ccccc3)nc(N)n3c(=O)n(C4CSCc5ccccc54)nc23)cc(C)n1 (centres unmarked) [Example 1-13, 5-amino-8-(2,6-dimethyl-4-pyridyl)-2-isothiochroman-4-yl-7-phenyl-[1,2,4]triazolo[4,3-c]pyrimidin-3-one]
Ki [1]: 158 nM
Ki [2]: 1.26 nM

Cc1cc(-c2c(-c3ccccc3)nc(N)n3c(=O)n(C[C@@H]4CN(C)CCO4)nc23)cc(C)n1 [Example 2-72, 5-amino-8-(2,6-dimethyl-4-pyridyl)-2-[[(2S)-4-methylmorpholin-2-yl]methyl]-7-phenyl-[1,2,4]triazolo[4,3-c]pyrimidin-3-one]
Ki [1]: 631 nM
Ki [2]: 15.8 nM
